Assay results taken from article PMC3217100 (2011).
Read-outs that look alike come from different tables or passages of the source.

Experiments:
[1] = molecular target: T1, nicotinic α4β2 receptor (α4β2 nAChR) (Rattus norvegicus, UniProt P09483+P12390); assay: radioligand competition with 3H-cytisine, rat brain homogenate; type: binding; settings: read-out: Ki ^a; cited from earlier work
[2] = molecular target: T1, nicotinic α4β2 receptor (α4β2 nAChR); assay: as above; type: binding

| SMILES | Ki [1] | Ki [2] |
| --- | --- | --- |
| FCCCc1cncc(OC[C@@H]2CCCN2)c1 [compound 3, Nifrolidine] | 0.8 nM |  |
| FCCCc1cncc(OC[C@@H]2CCN2)c1 [compound 4, 3-(2-(S)-azetidinylmethoxy)-5-(3′-fluoropropyl)pyridine] |  | 0.67 nM |
